Biological target: T1, KRAS G12C (Homo sapiens, UniProt P01116, G12C)
T1 construct: KRAS G12C (amino acid region: 1-169)
Test: Inhibitory activity on the KRAS G12C nucleotide (GDP-GTP) exchange reaction
Format: biochemical
Details: Bodipy FL GDP-bound KRAS G12C 25 nM; preincubation at 25° C. for 4 hours; SOS1 100 nM, GppNHp 1 μM, reaction for 30 minutes
Description: Test Example 2: Evaluation of Inhibitory Activity of Compounds on the KRAS G12C Nucleotide (GDP-GTP) Exchange Reaction
The inhibitory activity of compounds on the exchange reaction of GDP into GppNHp in Bodipy (trademark) FL-bound KRAS G12C was examined by fluorescence measurement using human recombinant KRAS G12C and SOS1 proteins.
For the preparation of KRAS G12C to which Bodipy FL GDP was bound, first, 50 µM KRAS G12C (amino acid region: 1-169) and 1 mM Bodipy FL GDP (Invitrogen, G22360) were incubated for 1 hour in a buffer (20 mM Tris-HCl (pH 7.5), 50 mM NaCl, 1 mM DTT) in ice in the presence of 2.5 mM EDTA. Thereafter, MgCl2 with a final concentration of 10 mM was added, and the mixture was incubated at room temperature for 30 minutes. The protein was allowed to pass through a NAP-5 column to remove free nucleotides and was used for compound evaluation.
For the measurement of the inhibitory activity of compounds on nucleotide exchange reaction, first, the compound of the disclosure was diluted stepwise with dimethyl sulfoxide (DMSO). Subsequently, a solution of the gradually diluted compound of the disclosure in DMSO (the final concentration of DMSO: 5%) and KRAS G12C (25 nM) bound to Bodipy FL GDP were added to a reaction buffer (20 mM Tris-HCl (pH 7.5), 100 mM NaCl, 1 mM MgCl2, 2 mM DTT, 0.1% Tween20), followed by preincubation at 25° C. for 4 hours. Thereafter, Son of Sevenless Homolog 1 (SOS1, amino acid region: 564-1049) and GppNHp (GMPPNP, Jena Bioscience GmbH, NU-401-50) were added such that their final concentration was 100 nM and 1 μM respectively, followed by reaction for 30 minutes. The change in fluorescence intensity of Bodipy FL (excitation wavelength: 485 nm, fluorescence wavelength: 520 nm) immediately after the start of reaction and after 30 minutes from the start of reaction was standardized. The signal value for only DMSO was determined to be 0% inhibition, and the signal value for no addition of GppNHp was determined to be 100% inhibition. The compound concentration at which 50% inhibition is achieved was determined to be the IC50 (nM) and was calculated.

T1 sequence (P01116 1-169 isoform P01116-2 G12C): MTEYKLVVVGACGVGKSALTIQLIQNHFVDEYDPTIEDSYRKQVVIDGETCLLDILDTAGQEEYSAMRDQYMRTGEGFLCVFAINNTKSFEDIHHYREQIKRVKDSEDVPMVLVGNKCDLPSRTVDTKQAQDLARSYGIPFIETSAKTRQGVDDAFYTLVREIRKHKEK

IC50 [nM]	Compound
24	C=CC(=O)N1C[C@@H](COC)[C@@H](NC(=O)c2c(C)nc(CNc3n[nH]c4cc(Cl)c(C(C)(C)C)cc34)n2C)C1 [Example 67, N-((3R,4R)-1-acryloyl-4-(methoxymethyl)pyrrolidin-3-yl)-2-(((5-(tert-butyl)-6-chloro-1H-indazol-3-yl)amino)methyl)-1,4-dimethyl-1H-imidazole-5-carboxamide]
20	C=CC(=O)N1C[C@@H](C)[C@@H](NC(=O)c2c(Cl)nc(CNc3n[nH]c4cc(Cl)c(C(C)(C)C)cc34)n2C)C1 [Example 78, N-((3R,4R)-1-acryloyl-4-methylpyrrolidin-3-yl)-2-(((5-(tert-butyl)-6-chloro-1H-indazol-3-yl)amino)methyl)-4-chloro-1-methyl-1H-imidazole-5-carboxamide]
7	C=CC(=O)N1CC(NC(=O)c2c(Cl)nc(CNc3n[nH]c4cc(Cl)c(C(C)(C)C)cc34)n2C2CCOCC2)C1 [Example 101, N-(1-acryloylazetidin-3-yl)-2-(((5-(tert-butyl)-6-chloro-1H-indazol-3-yl)amino)methyl)-4-chloro-1-(tetrahydro-2H-pyran-4-yl)-1H-imidazole-5-carboxamide]
13	C=CC(=O)N1CC(NC(=O)c2c(C(F)F)nc(CNc3n[nH]c4cc(Cl)c(C(C)(C)C)cc34)n2C(C)C)C1 [Example 33, N-(1-acryloylazetidin-3-yl)-2-(((5-(tert-butyl)-6-chloro-1H-indazol-3-yl)amino)methyl)-4-(difluoromethyl)-1-isopropyl-1H-imidazole-5-carboxamide]
126	C=CC(=O)N1CCC(NC(=O)c2c(C)nc(CNc3n[nH]c4cc(Cl)c(C(C)(C)C)cc34)n2C)C1 (stereo not shown) [Example 48, N-(1-acryloylpyrrolidin-3-yl)-2-(((5-(tert-butyl)-6-chloro-1H-indazol-3-yl)amino)methyl)-1,4-dimethyl-1H-imidazole-5-carboxamide]
17	C=CC(=O)N1CC(NC(=O)c2c(C)nc(CNc3n[nH]c4cc(Cl)c(C(C)(C)C)cc34)n2C2CCCC2)C1 [Example 17, N-(1-acryloylazetidin-3-yl)-2-(((5-(tert-butyl)-6-chloro-1H-indazol-3-yl)amino)methyl)-1-cyclopentyl-4-methyl-JH-imidazole-5-carboxamide]
15	C=CC(=O)N1CC(NC(=O)c2c(Cl)nc(CNc3n[nH]c4cc(Cl)c(C(C)(C)C)cc34)n2[C@H]2C[C@H](C)CC[C@H]2C(C)C)C1 [Example 111, N-(1-acryloylazetidin-3-yl)-2-(((5-(tert-butyl)-6-chloro-1H-indazol-3-yl)amino)methyl)-4-chloro-1-((1S,2S,5R)-2-isopropyl-5-methylcyclohexyl)-JH-imidazole-5-carboxamide]
42	C=CC(=O)N1CC(NC(=O)c2c(C)nc(CNc3n[nH]c4cc(Cl)c(C(C)(C)C)cc34)n2C)C(F)(F)C1 (stereo not shown) [Example 53, N-(1-acryloyl-4,4-difluoropyrrolidin-3-yl)-2-(((5-(tert-butyl)-6-chloro-1H-indazol-3-yl)amino)methyl)-1,4-dimethyl-1H-imidazole-5-carboxamide]
24	C=CC(=O)N1CC(NC(=O)c2c(Cl)nc(CNc3n[nH]c4cc(Cl)c(C(C)C)cc34)n2C(C)C)C1 [Example 45, N-(1-acryloylazetidin-3-yl)-4-chloro-2-(((6-chloro-5-isopropyl-1H-indazol-3-yl)amino)methyl)-1-isopropyl-1H-imidazole-5-carboxamide]
4280	C=CC(=O)N1CCN(C(=O)c2c(C)nc(CNc3n[nH]c4cc(Cl)c(C(C)(C)C)cc34)n2C)CC1 [Example 50, 1-(4-(2-(((5-(Tert-butyl)-6-chloro-1H-indazol-3-yl)amino)methyl)-1,4-dimethyl-1H-imidazole-5-carbonyl)piperazin-1-yl)prop-2-en-1-one]
180	C=CC(=O)N1CC(NC(=O)c2c(Cl)nc(CNc3n[nH]c4cc(Cl)c(C5(C(F)(F)F)CC5)cc34)n2C(C)C)C1 [Example 44, N-(1-acryloylazetidin-3-yl)-4-chloro-2-(((6-chloro-5-(-(trifluoromethyl)cyclopropyl)-1H-indazol-3-yl)amino)methyl)-1-isopropyl-1H-imidazole-5-carboxamide]
6650	C=CC(=O)N1C[C@@H](CC)[C@@H](NC(=O)c2c(C)nc(CNc3n[nH]c4cc(Cl)c(C(C)(C)C)cc34)n2C)C1 [Example 69, N-((3R,4R)-1-acryloyl-4-ethylpyrrolidin-3-yl)-2-(((5-(tert-butyl)-6-chloro-1H-indazol-3-yl)amino)methyl)-1,4-dimethyl-1H-imidazole-5-carboxamide]
36	C=CC(=O)N1C[C@@H](C)[C@@H](NC(=O)c2c(F)nc(CNc3n[nH]c4cc(Cl)c(C(C)(C)C)cc34)n2C)C1 [Example 74, N-((3R,4R)-1-acryloyl-4-methylpyrrolidin-3-yl)-2-(((5-(tert-butyl)-6-chloro-1H-indazol-3-yl)amino)methyl)-4-fluoro-1-methyl-1H-imidazole-5-carboxamide]
209	CC#CC(=O)N1CC(NC(=O)c2c(C)nc(CNc3n[nH]c4cc(Cl)c(C(C)(C)C)cc34)n2C(C)C)C1 [Example 82, N-(1-(buty-2-noyl)azetidin-3-yl)-2-(((5-(tert-butyl)-6-chloro-1H-indazol-3-yl)amino)methyl)-1-isopropyl-4-methyl-1H-imidazole-5-carboxamide]
4260	C=CC(=O)N1CC(NC(=O)c2csc(CNc3n[nH]c4cc(Cl)c(C(C)(C)C)cc34)n2)C1 [Example 7, N-(1-acryloylazetidin-3-yl)-2-(((5-(tert-butyl)-6-chloro-1H-indazol-3-yl)amino)methyl)thiazole-4-carboxamide]
5	C=CC(=O)N1CC(NC(=O)c2c(Cl)nc(CNc3n[nH]c4cc(Cl)c(C(C)(C)C)cc34)n2[C@@H]2CCOC2)C1 [Example 102, (R)-N-(1-acryloylazetidin-3-yl)-2-(((5-(tert-butyl)-6-chloro-1H-indazol-3-yl)amino)methyl)-4-chloro-1-(tetrahydrofuran-3-yl)-1H-imidazole-5-carboxamide]
6	C=CC(=O)N1CC(NC(=O)c2c(Cl)nc(CNc3n[nH]c4cc(Cl)c(C(C)(C)C)cc34)n2[C@@H]2CCN(Cc3ccccc3)C2)C1 [Example 122, (R)-N-(1-acryloylazetidin-3-yl)-1-(1-benzylpyrrolidin-3-yl)-2-(((5-(tert-butyl)-6-chloro-1H-indazol-3-yl)amino)methyl)-4-chloro-1H-imidazole-5-carboxamide]
5	C=CC(=O)N1CC(NC(=O)c2c(Cl)nc(CNc3n[nH]c4cc(Cl)c(C(C)(C)C)cc34)n2C2CCCN(C)C2)C1 (stereo not shown) [Example 118, N-(1-acryloylazetidin-3-yl)-2-(((5-(tert-butyl)-6-chloro-1H-indazol-3-yl)amino)methyl)-4-chloro-1-(1-methylpiperidin-3-yl)-1H-imidazole-5-carboxamide]
16	C=CC(=O)N1C[C@H](NC(=O)c2c(F)nc(CNc3n[nH]c4cc(Cl)c(C(C)(C)C)cc34)n2C)[C@@H](F)C1 [Example 75, N-((3S,4S)-1-acryloyl-4-fluoropyrrolidin-3-yl)-2-(((5-(tert-butyl)-6-chloro-1H-indazol-3-yl)amino)methyl)-4-fluoro-1-methyl-1H-imidazole-5-carboxamide]
